Test results reported in patent US8785483B2, “Methods for treating COPD” (The Board of Regents of the University of Texas System, priority 2010, dated 2014).

What was measured:
[1] = test system: IL-13; assay: RWE-induced expression of IL-13 in mouse lung (quantitative RT-PCR); type: in vivo; settings: RWE-sensitized and challenged mice, fidarestat 7 mg/kg body wt/day in drinking water, lungs 16 h after challenge
Method: FIG. 8. AR inhibition prevents RWE-induced expression of IL-13 in mouse lung. The mice were sensitized and challenged with PBS or RWE, without or with AR inhibitor and 16 h later lungs were harvested and total RNA was isolated (n=4). One microgram of total RNA from each sample was transcribed into first-strand cDNA and quantitative RT-PCR was conducted using IL-13 specific forward and reverse primers. The levels of RNA for the target sequences were determined by melting curve analysis. The values presented here are fold-change over the control. (**p<0.001). RWE, ragweed pollen extract; ARI, aldose reductase inhibitor. […]
The mice lungs were harvested 16 h after RWE-challenge and total RNA was isolated. From each sample, one microgram of total RNA was transcribed into first-strand cDNA and quantitative RT-PCR was conducted using IL-13 specific forward and reverse primers 5′[…] […] Data were collected and analyzed by ABI 7000 System equipment and software (Applied Biosystems, Foster City, Calif.). […] Values of expression in fold increase (ratio of control) were calculated using the formula for relative expression by the method of Delta Delta CT (ΔΔCT): F=2^−^ΔΔ^C, F=fold change (ratio of control), −ΔΔCT=(CT Target−CTHKG)^Timex−(CT Target-CT HKG)^Time 0. […]

[2] = test system: goblet cell metaplasia in mice lungs; assay: RWE-induced goblet cell metaplasia in mice lungs (PAS stain); type: in vivo; settings: RWE-sensitized and challenged mice, fidarestat 7 mg/kg body wt/day in drinking water, 72 h after challenge
Method: FIGS. 10A-10B. Inhibition or deficiency of AR prevents RWE-induced goblet cell metaplasia in mice lungs. RWE-sensitized normal and AR-null mice were challenged with RWE and 72 h later the lungs were harvested from mice treated without or with AR inhibitor (A) or AR-null mice (B), perfused and fixed with 4% paraformaldehyde and embedded in paraffin. The sections were stained with PAS stain and observed under light microscope and photomicrographs were acquired. A representative photomicrograph from each group is shown (n=4). Magnification 200× (A); 400× (B).
Wild type C57BL/6 and Balb/cJ mice were purchased from Harlan Sprague-Dawley (San Diego, Calif., USA) and AR null mice on C57BL/6 background were bread by us at Animal resource center, UTMB, Galveston, Tex. Six-eight weeks old female mice were sensitized with RWE as previously described (Hwang et al., FASEB J. 19: 795-797, 2005). Briefly, mice were sensitized with two intraperitoneal administrations of 100 μl of endotoxin-free RWE (150 μg) combined with Alum adjuvant (1 mg) in a 3:1 ratio (v/v), on days 0 and 4. On day 11, mice (n=6) were challenged intranasally with RWE (100 μg). A parallel group of mice received fidarestat (7 mg/kg body wt/day) in drinking water from one day before the challenge. Control groups of mice were challenged with equivalent volumes of PBS. […]

## NC(=O)[C@@H]1C[C@]2(NC(=O)NC2=O)c2cc(F)ccc2O1 [fidarestat, (2S,4S)-2-aminoformyl-6-fluoro-spiro[chroman-4,4′-imidazolidine]-2′,5′-dione]
[1]
  RWE-induced increase of IL-13 expression in lung: prevented this increase
[2]
  PAS positive cells in the airway: absent
